# Tested on: 616215-338-R-J1-PDC complex spheroid viability
# Test: Anticancer human tumor 616215-338-R-J1-PDC patient-derived colon adenocarcinoma cell line growth inhibition [RAS]
# Conditions: for IC50: curve of first compound; for viability, T/C: stronger effect = lower value
# In short: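 Tumour cells grown as complex spheroids with HUVEC endothelial cells and mesenchymal stem cells, treated with RAS pathway inhibitor combinations. Each agent spans half-log steps from near clinical Cmax, or 10 microM where Cmax is unknown.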
# 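Further: spheroids exposed to agents for seven days before viability readout.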
# 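Wherever viability, T/C is given: 100% = DMSO vehicle control viability.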
smiles,measurement,setting,value
CCc1c2c(nc3ccc(O)cc13)-c1cc3c(c(=O)n1C2)COC(=O)[C@]3(O)CC + C#Cc1c(F)ccc2cc(O)cc(-c3ncc4c(N5CC6CCC(C5)N6)nc(OCC56CCCN5CC(F)C6)nc4c3F)c12,IC50,second compound 0.0316 µM,0.0102 µM
same,IC50,second compound 0.1 µM,0.0107 µM
same,IC50,second compound 0.316 µM,0.0168 µM
same,IC50,second compound 1 µM,0.00772 µM
same,IC50,second compound 3.16 µM,0.00471 µM
same,IC50,second compound 10 µM,< 0.000949 µM
same,"viability, T/C","second compound 0.0316 µM, first compound 0.000949 µM",108%
same,"viability, T/C","second compound 0.0316 µM, first compound 0.003 µM",108%
same,"viability, T/C","second compound 0.0316 µM, first compound 0.00949 µM",50.2%
same,"viability, T/C","second compound 0.0316 µM, first compound 0.03 µM",35%
same,"viability, T/C","second compound 0.0316 µM, first compound 0.0949 µM",21.1%
same,"viability, T/C","second compound 0.0316 µM, first compound 0.3 µM",16.5%
same,"viability, T/C","second compound 0.1 µM, first compound 0.000949 µM",116%
same,"viability, T/C","second compound 0.1 µM, first compound 0.003 µM",103%
same,"viability, T/C","second compound 0.1 µM, first compound 0.00949 µM",50.8%
same,"viability, T/C","second compound 0.1 µM, first compound 0.03 µM",27.9%
same,"viability, T/C","second compound 0.1 µM, first compound 0.0949 µM",21.6%
same,"viability, T/C","second compound 0.1 µM, first compound 0.3 µM",13.6%
same,"viability, T/C","second compound 0.316 µM, first compound 0.000949 µM",112%
same,"viability, T/C","second compound 0.316 µM, first compound 0.003 µM",100%
same,"viability, T/C","second compound 0.316 µM, first compound 0.00949 µM",63%
same,"viability, T/C","second compound 0.316 µM, first compound 0.03 µM",36%
same,"viability, T/C","second compound 0.316 µM, first compound 0.0949 µM",20.6%
same,"viability, T/C","second compound 0.316 µM, first compound 0.3 µM",14%
same,"viability, T/C","second compound 1 µM, first compound 0.000949 µM",120%
same,"viability, T/C","second compound 1 µM, first compound 0.003 µM",89.6%
same,"viability, T/C","second compound 1 µM, first compound 0.00949 µM",38.7%
same,"viability, T/C","second compound 1 µM, first compound 0.03 µM",30.5%
same,"viability, T/C","second compound 1 µM, first compound 0.0949 µM",20.2%
same,"viability, T/C","second compound 1 µM, first compound 0.3 µM",15.8%
same,"viability, T/C","second compound 3.16 µM, first compound 0.000949 µM",89.3%
same,"viability, T/C","second compound 3.16 µM, first compound 0.003 µM",65.8%
same,"viability, T/C","second compound 3.16 µM, first compound 0.00949 µM",25.1%
same,"viability, T/C","second compound 3.16 µM, first compound 0.03 µM",20%
same,"viability, T/C","second compound 3.16 µM, first compound 0.0949 µM",15.1%
same,"viability, T/C","second compound 3.16 µM, first compound 0.3 µM",13.2%
same,"viability, T/C","second compound 10 µM, first compound 0.000949 µM",47.1%
same,"viability, T/C","second compound 10 µM, first compound 0.003 µM",45%
same,"viability, T/C","second compound 10 µM, first compound 0.00949 µM",17.5%
same,"viability, T/C","second compound 10 µM, first compound 0.03 µM",17.6%
same,"viability, T/C","second compound 10 µM, first compound 0.0949 µM",16.6%
same,"viability, T/C","second compound 10 µM, first compound 0.3 µM",10.7%
C=CC(=O)Nc1cc(Nc2nccc(-c3cn(C)c4ccccc34)n2)c(OC)cc1N(C)CCN(C)C + C=CC(=O)N1CCN(c2nc(OCC3CCCN3C)nc3c(F)c(-c4nc(N)cc(C)c4C(F)(F)F)c(Cl)cc23)C(C)C1,IC50,second compound 0.00316 µM,> 1 µM
same,IC50,second compound 0.01 µM,> 1 µM
same,IC50,second compound 0.0316 µM,> 1 µM
same,IC50,second compound 0.1 µM,> 1 µM
same,IC50,second compound 0.316 µM,> 1 µM
same,IC50,second compound 1 µM,> 1 µM
same,"viability, T/C","second compound 0.00316 µM, first compound 0.00316 µM",95.8%
same,"viability, T/C","second compound 0.00316 µM, first compound 0.01 µM",105%
same,"viability, T/C","second compound 0.00316 µM, first compound 0.0316 µM",107%
same,"viability, T/C","second compound 0.00316 µM, first compound 0.1 µM",104%
same,"viability, T/C","second compound 0.00316 µM, first compound 0.316 µM",106%
same,"viability, T/C","second compound 0.00316 µM, first compound 1 µM",85.6%
same,"viability, T/C","second compound 0.01 µM, first compound 0.00316 µM",93%
same,"viability, T/C","second compound 0.01 µM, first compound 0.01 µM",108%
same,"viability, T/C","second compound 0.01 µM, first compound 0.0316 µM",99%
same,"viability, T/C","second compound 0.01 µM, first compound 0.1 µM",101%
same,"viability, T/C","second compound 0.01 µM, first compound 0.316 µM",108%
same,"viability, T/C","second compound 0.01 µM, first compound 1 µM",101%
same,"viability, T/C","second compound 0.0316 µM, first compound 0.00316 µM",101%
same,"viability, T/C","second compound 0.0316 µM, first compound 0.01 µM",110%
same,"viability, T/C","second compound 0.0316 µM, first compound 0.0316 µM",107%
same,"viability, T/C","second compound 0.0316 µM, first compound 0.1 µM",99.3%
same,"viability, T/C","second compound 0.0316 µM, first compound 0.316 µM",108%
same,"viability, T/C","second compound 0.0316 µM, first compound 1 µM",96%
same,"viability, T/C","second compound 0.1 µM, first compound 0.00316 µM",103%
same,"viability, T/C","second compound 0.1 µM, first compound 0.01 µM",102%
same,"viability, T/C","second compound 0.1 µM, first compound 0.0316 µM",88.6%
same,"viability, T/C","second compound 0.1 µM, first compound 0.1 µM",106%
same,"viability, T/C","second compound 0.1 µM, first compound 0.316 µM",128%
same,"viability, T/C","second compound 0.1 µM, first compound 1 µM",74.2%
same,"viability, T/C","second compound 0.316 µM, first compound 0.00316 µM",105%
same,"viability, T/C","second compound 0.316 µM, first compound 0.01 µM",98.9%
same,"viability, T/C","second compound 0.316 µM, first compound 0.0316 µM",99.4%
same,"viability, T/C","second compound 0.316 µM, first compound 0.1 µM",106%
same,"viability, T/C","second compound 0.316 µM, first compound 0.316 µM",109%
same,"viability, T/C","second compound 0.316 µM, first compound 1 µM",74.4%
same,"viability, T/C","second compound 1 µM, first compound 0.00316 µM",96.9%
same,"viability, T/C","second compound 1 µM, first compound 0.01 µM",98.3%
same,"viability, T/C","second compound 1 µM, first compound 0.0316 µM",91%
same,"viability, T/C","second compound 1 µM, first compound 0.1 µM",114%
same,"viability, T/C","second compound 1 µM, first compound 0.316 µM",110%
same,"viability, T/C","second compound 1 µM, first compound 1 µM",68.9%

# — PubChem BioAssay AID2060898 (Molecular Pharmacology Branch, DTP, NCI, 2025)
